In patent publication US20240158446A1, “CYCLIC COMPOUND HAVING SELECTIVE INHIBITORY ACTION ON KRAS OVER HRAS AND NRAS” (CHUGAI SEIYAKU KABUSHIKI KAISHA, priority 2021, published 2024):
Where two headings read alike, the source gives them in different places. *1 amine or outer side, *2 acyl side, *3 side chain or, on linkers, in order; H or OH if unused. Where a SMILES comes first, the peptide text is derived from it. Bridges are numbered along the chain shown (N, C = ends). [ ]: non-standard residue; d: D form. The star is where a group is joined. hPhe(3,5-F2-4-CF3) = N[C@@H](CCc1cc(F)c(C(F)(F)F)c(F)c1)C(=O)O; hPhe(3-Cl-4-CF3) = N[C@@H](CCc1ccc(C(F)(F)F)c(Cl)c1)C(=O)O; NPrPhe(4-CF3) = CCCN[C@@H](Cc1ccc(C(F)(F)F)cc1)C(=O)O; X29 = CN([C@@H](CCCC=[*:3])C(=O)[*:2])[*:1]; dαMeAlg = C[C@](CC=[*:3])(N[*:1])C(=O)[*:2]; NMeGly(cPent) = CN[C@H](C(=O)O)C1CCCC1; Pro(4,4-F2) = O=C(O)[C@@H]1CC(F)(F)CN1; Hyp = O=C(O)[C@@H]1C[C@@H](O)CN1; NMeD = CN[C@@H](CC(=O)O)C(=O)O; NMeL = CN[C@@H](CC(C)C)C(=O)O; Morpholide = C1CN(*)CCO1; Ac5c = NC1(C(=O)O)CCCC1; Aze = O=C(O)[C@@H]1CCN1; Sar = CNCC(=O)O

Key:
[1] = target: GDP-bound HRAS wild-type protein (Homo sapiens, UniProt P01112); experiment: Binding to HRAS by surface plasmon resonance (SPR), Single Cycle Kinetics; settings: for HRAS/KRAS (ratio of KD value for HRAS to KD value for KRAS): SPR, GDP-bound HRAS wild-type protein vs GDP-bound KRAS wild-type protein
Chain of GDP-bound HRAS wild-type protein (P01112 whole entry): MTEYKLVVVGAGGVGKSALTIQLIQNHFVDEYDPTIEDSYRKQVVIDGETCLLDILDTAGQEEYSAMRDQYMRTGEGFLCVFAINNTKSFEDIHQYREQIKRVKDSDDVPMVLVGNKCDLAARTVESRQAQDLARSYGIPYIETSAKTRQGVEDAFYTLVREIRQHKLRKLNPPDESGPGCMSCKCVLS

[2] = target: GDP-bound KRAS wild-type protein (Homo sapiens, UniProt P01116); experiment: Binding to KRAS by surface plasmon resonance (SPR), Single Cycle Kinetics; settings: GDP-bound KRAS wild-type protein, read-out: KRAS KD
Chain of GDP-bound KRAS wild-type protein (P01116 whole entry): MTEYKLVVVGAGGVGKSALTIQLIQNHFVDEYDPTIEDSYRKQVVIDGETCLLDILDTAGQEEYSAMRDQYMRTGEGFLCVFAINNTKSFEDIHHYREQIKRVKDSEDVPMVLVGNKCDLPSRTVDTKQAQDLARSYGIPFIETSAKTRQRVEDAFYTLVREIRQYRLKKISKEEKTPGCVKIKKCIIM

[3] = target: GDP-bound NRAS wild-type protein (Homo sapiens, UniProt P01111); experiment: Binding to NRAS by surface plasmon resonance (SPR), Single Cycle Kinetics; settings: for NRAS/KRAS (ratio of KD value for NRAS to KD value for KRAS): SPR, GDP-bound NRAS wild-type protein vs GDP-bound KRAS wild-type protein
Chain of GDP-bound NRAS wild-type protein (P01111 whole entry): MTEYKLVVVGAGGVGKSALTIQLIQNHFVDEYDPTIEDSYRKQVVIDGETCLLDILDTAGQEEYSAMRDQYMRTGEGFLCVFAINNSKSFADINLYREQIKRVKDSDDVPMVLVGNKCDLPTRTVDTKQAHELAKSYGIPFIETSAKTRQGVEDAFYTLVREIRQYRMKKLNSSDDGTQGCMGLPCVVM

[4] = SPR Single Cycle Kinetics, 1:1 binding model
[5] = SPR, Single Cycle Kinetics, 1:1 binding model

Row | SMILES | Kd ([2]; SPR, Single Cycle Kinetics) | Kd [2, 4] | Kd [2, 5] | HRAS/KRAS (ratio of KD value for HRAS to KD value for KRAS) [1] | NRAS/KRAS (ratio of KD value for NRAS to KD value for KRAS) [3] | HRAS/KRAS (ratio of KD value for HRAS to KD value for KRAS) ([1]; KD ratio class) | NRAS/KRAS (ratio of KD value for NRAS to KD value for KRAS) ([3]; KD ratio class) | further results
1 | C#CC[C@H]1C(=O)N[C@@H]([C@@H](C)CC)C(=O)N(C)CC(=O)N(C)[C@H]2C/C=C\CCN(C2=O)[C@@H](Cc2ccc(C(F)(F)F)cc2)C(=O)N(C)CC(=O)N[C@@H](CCc2ccc(C(F)(F)F)c(Cl)c2)C(=O)N2C[C@H](OCC)C[C@H]2C(=O)NC2(CC(C)(C)C2)C(=O)N(C)[C@@H](C2CCCC2)C(=O)N(C)[C@H](C(=O)N(C)CC)CC(=O)N1C [PP2844] |  | 0.12 nM |  |  |  |  |  | HRAS/KRAS (ratio of KD value with respect to GDP-bound HRAS wild-type protein to KD value with respect to KRAS) ([1]; SPR KD ratio HRAS/KRAS, class symbols): A (a compound having 10 or more and less than 20 is denoted as A); NRAS/KRAS (ratio of KD value with respect to GDP-bound NRAS wild-type protein to KD value with respect to KRAS) ([3]; SPR KD ratio NRAS/KRAS, class symbols): A (a compound having 10 or more and less than 20 is denoted as A)
2 | CCCN1C(=O)CN(C)C(=O)CN(C)C(=O)[C@H]([C@@H](C)CC)NC(=O)[C@@H]2CCCC=CC[C@@](C)(NC(=O)[C@@H]3C[C@@H](OCC)CN3C(=O)[C@H](CCc3cc(F)c(C(F)(F)F)c(F)c3)NC(=O)CN(C)C(=O)[C@@H]1Cc1ccc(C(F)(F)F)cc1)C(=O)N(C)[C@@H](C1CCCC1)C(=O)N(C)[C@H](C(=O)N1CCOCC1)CC(=O)N2C [PP0901] ([X29]I[Sar][Sar][NPrPhe(4-CF3)][Sar][hPhe(3,5-F2-4-CF3)][Hyp](Et)[dαMeAlg][NMeGly(cPent)][NMeD]-Morpholide; staple 1-9; lactam N-11) | 3 nM |  |  | B (a compound having 3 or more and less than 10 is denoted as B) | B (a compound having 3 or more and less than 10 is denoted as B) |  |  | 
3 | CCO[C@@H]1C[C@H]2C(=O)NC3(CCC3)C(=O)N(C)[C@@H](C3CCCC3)C(=O)N(C)[C@H](C(=O)N(C)CCOC)CC(=O)N(C)[C@@H](CC3CC3)C(=O)N[C@@H]([C@@H](C)CC)C(=O)N(C)CC(=O)N(C)[C@H]3C/C=C\CCN(C3=O)[C@@H](Cc3ccc(C(F)(F)F)cc3)C(=O)N(C)CC(=O)N[C@@H](CCc3ccc4sccc4c3)C(=O)N2C1 [PP1328] |  |  | 0.56 nM |  |  | A (a compound having 10 or more and less than 20 is denoted as A) | A (a compound having 10 or more and less than 20 is denoted as A) | 

Continued, in another order:

Row | Kd ([2]; SPR, Single Cycle Kinetics) | Kd [2, 4] | Kd [2, 5] | SMILES | HRAS/KRAS (ratio of KD value for HRAS to KD value for KRAS) [1] | NRAS/KRAS (ratio of KD value for NRAS to KD value for KRAS) [3] | HRAS/KRAS (ratio of KD value for HRAS to KD value for KRAS) ([1]; KD ratio class) | NRAS/KRAS (ratio of KD value for NRAS to KD value for KRAS) ([3]; KD ratio class) | further results
4 | 0.29 nM |  |  | CCO[C@@H]1C[C@H]2C(=O)NC3(CC(C)(C)C3)C(=O)N(C)[C@@H](C(CC)CC)C(=O)N(C)[C@H](C(=O)N(C)C)CC(=O)N(C)[C@@H](CC3CCC3)C(=O)N[C@@H]([C@@H](C)CC)C(=O)N(C)CC(=O)N(C)[C@H]3C/C=C\CCN(C3=O)[C@@H](Cc3ccc(C)cc3)C(=O)N(C)CC(=O)N[C@@H](CCc3cc(F)c(C(F)(F)F)c(F)c3)C(=O)N2C1 [PP2151] | A (a compound having 10 or more and less than 20 is denoted as A) | A (a compound having 10 or more and less than 20 is denoted as A) |  |  | 
5 |  | 1.1 nM |  | CCCN1C(=O)[C@@H]2CCN2C(=O)CN(C)C(=O)[C@H]([C@@H](C)CC)NC(=O)[C@H](CC(C)C)N(C)C(=O)C[C@@H](C(=O)N2CCOCC2)NC(=O)[C@H](C2CCCC2)N(C)C(=O)C2(CCCC2)NC(=O)[C@@H]2CC(F)(F)CN2C(=O)[C@H](CCc2ccc(C(F)(F)F)c(Cl)c2)NC(=O)CN(C)C(=O)[C@@H]1Cc1ccc(C(F)(F)F)cc1 [PP0351] ([NMeL]I[Sar][Aze][NPrPhe(4-CF3)][Sar][hPhe(3-Cl-4-CF3)][Pro(4,4-F2)][Ac5c][NMeGly(cPent)]D-Morpholide; lactam N-11) | B (a compound having 3 or more and less than 10 is denoted as B) | C (A compound having a KD ratio of 0.1 or more and less than 3 is denoted as C) |  |  | 
6 |  |  | 0.09 nM | CC[C@H](C)[C@@H]1NC(=O)[C@H](CC)N(C)C(=O)C[C@@H](C(=O)N(C)C)N(C)C(=O)[C@H](C2CCCC2)N(C)C(=O)C2(CCCC2)NC(=O)[C@@H]2CCCN2C(=O)[C@H](CCc2cc(F)c(C(F)(F)F)c(F)c2)NC(=O)CN(C)C(=O)[C@H](Cc2ccc(C(F)(F)F)cc2)N2CC(C)[C@@H](C)C[C@@H](C2=O)N(C)C(=O)CN(C)C1=O (stereo partly drawn) [PP1349] |  |  | B (a compound having 3 or more and less than 10 is denoted as B) | C (A compound having a KD ratio of 0.1 or more and less than 3 is denoted as C) | 
